Legend:
[1] = molecular target: Phosphorylase b kinase gamma catalytic chain, skeletal muscle/heart isoform (Homo sapiens) (UniProt Q16816); details: Compound concentration 1000.0 nM
[2] = system: Phosphatidylinositol 4,5-bisphosphate 3-kinase catalytic subunit alpha isoform (Homo sapiens), P42336 [E545A]; details: Compound concentration 1000.0 nM
[3] = molecular target: T1, Serine/threonine-protein kinase Chk1 (Homo sapiens) (UniProt O14757); details: Compound concentration 1000.0 nM
T1 sequence (whole entry): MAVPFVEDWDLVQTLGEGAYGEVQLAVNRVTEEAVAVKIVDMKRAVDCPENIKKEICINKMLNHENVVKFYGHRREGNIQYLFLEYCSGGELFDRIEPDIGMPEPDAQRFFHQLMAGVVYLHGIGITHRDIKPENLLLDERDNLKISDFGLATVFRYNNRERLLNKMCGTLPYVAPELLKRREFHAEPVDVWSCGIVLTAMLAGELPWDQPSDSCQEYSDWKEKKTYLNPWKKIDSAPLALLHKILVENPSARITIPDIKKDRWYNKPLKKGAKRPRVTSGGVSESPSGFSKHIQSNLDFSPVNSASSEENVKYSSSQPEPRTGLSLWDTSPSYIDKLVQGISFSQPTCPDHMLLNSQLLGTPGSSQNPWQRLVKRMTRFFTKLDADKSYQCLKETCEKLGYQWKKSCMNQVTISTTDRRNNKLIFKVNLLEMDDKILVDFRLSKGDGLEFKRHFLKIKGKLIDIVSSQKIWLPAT

[4] = molecular target: D(1B) dopamine receptor (Homo sapiens) (UniProt P21918); details: Compound concentration 10.0 uM
[5] = molecular target: Mitogen-activated protein kinase 14 (Homo sapiens) (UniProt Q16539); details: Compound concentration 1000.0 nM
[6] = molecular target: Serine/threonine-protein kinase Nek10 (Homo sapiens) (UniProt Q6ZWH5); details: Compound concentration 1000.0 nM
[7] = system: Mast/stem cell growth factor receptor Kit (Homo sapiens), P10721 [V559D,T670I]; details: Compound concentration 1000.0 nM
[8] = molecular target: Serine/threonine-protein kinase 33 (Homo sapiens) (UniProt Q9BYT3); details: Compound concentration 1000.0 nM
[9] = molecular target: Cyclin-dependent kinase-like 5 (Homo sapiens) (UniProt O76039); details: Compound concentration 1000.0 nM
[10] = molecular target: T2, Mitogen-activated protein kinase 13 (Homo sapiens) (UniProt O15264); details: Compound concentration 1000.0 nM
T2 sequence (whole entry): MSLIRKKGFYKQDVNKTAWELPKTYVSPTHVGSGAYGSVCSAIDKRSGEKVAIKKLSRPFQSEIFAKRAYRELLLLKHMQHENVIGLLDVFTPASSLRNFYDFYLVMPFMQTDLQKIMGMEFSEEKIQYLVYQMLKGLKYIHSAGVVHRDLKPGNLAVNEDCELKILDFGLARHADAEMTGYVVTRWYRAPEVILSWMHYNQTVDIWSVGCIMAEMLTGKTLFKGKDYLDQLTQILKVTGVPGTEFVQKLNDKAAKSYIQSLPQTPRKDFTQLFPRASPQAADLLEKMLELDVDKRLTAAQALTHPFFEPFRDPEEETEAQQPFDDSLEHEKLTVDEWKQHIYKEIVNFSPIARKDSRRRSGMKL

[11] = molecular target: Bone morphogenetic protein receptor type-2 (Homo sapiens) (UniProt Q13873); details: Compound concentration 1000.0 nM
[12] = system: Epidermal growth factor receptor (Homo sapiens), P00533 [UNDEFINED MUTATION]; details: Compound concentration 1000.0 nM
[13] = molecular target: Serine/threonine-protein kinase MAK (Homo sapiens) (UniProt P20794); details: Compound concentration 1000.0 nM
[14] = molecular target: T3, Inhibitor of nuclear factor kappa-B kinase subunit epsilon (Homo sapiens) (UniProt Q14164); details: Compound concentration 1000.0 nM
T3 sequence (whole entry): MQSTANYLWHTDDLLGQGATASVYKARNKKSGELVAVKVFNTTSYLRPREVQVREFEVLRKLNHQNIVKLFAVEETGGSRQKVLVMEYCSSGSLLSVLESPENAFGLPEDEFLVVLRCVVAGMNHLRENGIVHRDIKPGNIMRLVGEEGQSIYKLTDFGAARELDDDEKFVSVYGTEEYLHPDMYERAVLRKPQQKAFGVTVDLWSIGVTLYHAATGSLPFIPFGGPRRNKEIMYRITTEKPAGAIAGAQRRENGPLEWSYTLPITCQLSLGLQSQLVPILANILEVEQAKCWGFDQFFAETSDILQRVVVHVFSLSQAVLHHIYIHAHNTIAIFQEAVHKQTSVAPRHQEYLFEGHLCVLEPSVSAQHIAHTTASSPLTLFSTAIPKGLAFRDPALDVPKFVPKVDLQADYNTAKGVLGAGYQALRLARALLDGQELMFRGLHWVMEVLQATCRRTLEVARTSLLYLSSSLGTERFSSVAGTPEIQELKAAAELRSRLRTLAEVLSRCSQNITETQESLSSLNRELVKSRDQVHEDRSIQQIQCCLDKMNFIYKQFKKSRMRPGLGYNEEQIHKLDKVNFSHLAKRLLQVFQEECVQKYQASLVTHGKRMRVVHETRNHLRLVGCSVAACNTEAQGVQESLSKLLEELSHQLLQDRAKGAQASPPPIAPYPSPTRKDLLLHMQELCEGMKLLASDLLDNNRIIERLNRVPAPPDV

[15] = molecular target: Mitogen-activated protein kinase kinase kinase 9 (Homo sapiens) (UniProt P80192); details: Compound concentration 1000.0 nM
[16] = molecular target: Calcium/calmodulin-dependent protein kinase type II subunit alpha (Homo sapiens) (UniProt Q9UQM7); details: Compound concentration 1000.0 nM
Sequence of Calcium/calmodulin-dependent protein kinase type II subunit alpha (Homo sapiens) (Q9UQM7 whole entry): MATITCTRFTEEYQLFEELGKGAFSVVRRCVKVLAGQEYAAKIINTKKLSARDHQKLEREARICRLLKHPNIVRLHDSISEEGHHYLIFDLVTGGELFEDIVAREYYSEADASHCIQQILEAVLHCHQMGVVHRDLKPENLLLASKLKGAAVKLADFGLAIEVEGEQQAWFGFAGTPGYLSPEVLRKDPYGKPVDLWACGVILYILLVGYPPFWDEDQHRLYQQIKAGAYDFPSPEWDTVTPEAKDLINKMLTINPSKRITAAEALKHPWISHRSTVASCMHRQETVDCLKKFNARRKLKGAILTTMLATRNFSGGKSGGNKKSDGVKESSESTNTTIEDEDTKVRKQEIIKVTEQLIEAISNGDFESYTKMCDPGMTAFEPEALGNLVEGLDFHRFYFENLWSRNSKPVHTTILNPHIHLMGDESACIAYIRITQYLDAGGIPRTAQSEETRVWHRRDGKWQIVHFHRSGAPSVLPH

Sequence of Mitogen-activated protein kinase 14 (Homo sapiens) (Q16539 whole entry): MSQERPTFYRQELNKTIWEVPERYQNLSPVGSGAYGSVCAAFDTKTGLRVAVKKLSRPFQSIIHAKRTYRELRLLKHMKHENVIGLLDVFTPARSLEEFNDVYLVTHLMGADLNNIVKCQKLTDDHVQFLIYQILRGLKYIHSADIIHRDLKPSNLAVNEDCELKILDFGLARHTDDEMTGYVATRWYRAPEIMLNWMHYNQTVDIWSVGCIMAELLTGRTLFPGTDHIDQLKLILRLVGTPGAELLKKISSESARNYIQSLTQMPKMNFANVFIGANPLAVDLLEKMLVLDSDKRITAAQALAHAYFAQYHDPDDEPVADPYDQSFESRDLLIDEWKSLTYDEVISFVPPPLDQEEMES
Sequence of Serine/threonine-protein kinase Nek10 (Homo sapiens) (Q6ZWH5 whole entry): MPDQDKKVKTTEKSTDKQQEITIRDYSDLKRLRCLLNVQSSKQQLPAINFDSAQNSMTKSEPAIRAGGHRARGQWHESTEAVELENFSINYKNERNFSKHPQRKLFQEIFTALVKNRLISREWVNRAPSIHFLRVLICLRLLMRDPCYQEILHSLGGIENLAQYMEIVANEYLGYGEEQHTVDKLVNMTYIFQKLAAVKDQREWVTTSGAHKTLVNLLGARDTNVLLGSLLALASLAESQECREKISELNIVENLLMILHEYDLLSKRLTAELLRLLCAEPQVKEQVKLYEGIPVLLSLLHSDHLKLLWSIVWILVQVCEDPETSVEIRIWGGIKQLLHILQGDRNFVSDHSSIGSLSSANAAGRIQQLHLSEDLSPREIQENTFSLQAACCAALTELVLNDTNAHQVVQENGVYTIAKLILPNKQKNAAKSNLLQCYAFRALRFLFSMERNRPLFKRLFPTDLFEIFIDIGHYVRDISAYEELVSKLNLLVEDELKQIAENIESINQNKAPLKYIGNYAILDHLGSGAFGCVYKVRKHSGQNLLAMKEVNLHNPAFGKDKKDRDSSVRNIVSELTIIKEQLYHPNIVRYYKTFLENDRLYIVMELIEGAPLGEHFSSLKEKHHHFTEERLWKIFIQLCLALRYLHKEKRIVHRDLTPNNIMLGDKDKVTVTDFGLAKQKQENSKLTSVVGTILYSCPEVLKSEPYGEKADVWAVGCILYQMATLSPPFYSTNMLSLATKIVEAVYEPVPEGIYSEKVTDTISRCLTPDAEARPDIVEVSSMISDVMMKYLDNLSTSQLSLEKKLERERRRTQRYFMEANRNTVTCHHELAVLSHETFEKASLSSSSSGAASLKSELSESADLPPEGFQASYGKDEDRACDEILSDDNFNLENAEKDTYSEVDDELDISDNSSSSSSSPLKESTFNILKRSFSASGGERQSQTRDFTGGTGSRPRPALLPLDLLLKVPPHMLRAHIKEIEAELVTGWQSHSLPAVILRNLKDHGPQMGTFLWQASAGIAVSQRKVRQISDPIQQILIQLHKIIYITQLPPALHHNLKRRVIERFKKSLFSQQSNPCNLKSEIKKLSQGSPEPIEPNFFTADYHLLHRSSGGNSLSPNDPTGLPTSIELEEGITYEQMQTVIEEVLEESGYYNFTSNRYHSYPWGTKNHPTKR
Sequence of D(1B) dopamine receptor (Homo sapiens) (P21918 whole entry): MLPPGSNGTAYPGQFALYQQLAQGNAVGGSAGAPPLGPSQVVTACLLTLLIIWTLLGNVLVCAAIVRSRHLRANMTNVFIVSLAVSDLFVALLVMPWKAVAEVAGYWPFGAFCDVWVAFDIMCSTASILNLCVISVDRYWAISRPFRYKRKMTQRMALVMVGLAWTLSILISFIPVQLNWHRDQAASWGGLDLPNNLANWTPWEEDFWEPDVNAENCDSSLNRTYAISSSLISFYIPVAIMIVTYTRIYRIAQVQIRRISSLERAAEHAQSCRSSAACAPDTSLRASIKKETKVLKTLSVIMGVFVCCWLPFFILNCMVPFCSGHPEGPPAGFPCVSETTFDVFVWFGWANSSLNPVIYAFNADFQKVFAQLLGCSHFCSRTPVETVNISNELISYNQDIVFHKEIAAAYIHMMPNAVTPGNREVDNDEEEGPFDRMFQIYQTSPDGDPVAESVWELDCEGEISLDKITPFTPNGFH
Sequence of Mitogen-activated protein kinase kinase kinase 9 (Homo sapiens) (P80192 whole entry, looked up): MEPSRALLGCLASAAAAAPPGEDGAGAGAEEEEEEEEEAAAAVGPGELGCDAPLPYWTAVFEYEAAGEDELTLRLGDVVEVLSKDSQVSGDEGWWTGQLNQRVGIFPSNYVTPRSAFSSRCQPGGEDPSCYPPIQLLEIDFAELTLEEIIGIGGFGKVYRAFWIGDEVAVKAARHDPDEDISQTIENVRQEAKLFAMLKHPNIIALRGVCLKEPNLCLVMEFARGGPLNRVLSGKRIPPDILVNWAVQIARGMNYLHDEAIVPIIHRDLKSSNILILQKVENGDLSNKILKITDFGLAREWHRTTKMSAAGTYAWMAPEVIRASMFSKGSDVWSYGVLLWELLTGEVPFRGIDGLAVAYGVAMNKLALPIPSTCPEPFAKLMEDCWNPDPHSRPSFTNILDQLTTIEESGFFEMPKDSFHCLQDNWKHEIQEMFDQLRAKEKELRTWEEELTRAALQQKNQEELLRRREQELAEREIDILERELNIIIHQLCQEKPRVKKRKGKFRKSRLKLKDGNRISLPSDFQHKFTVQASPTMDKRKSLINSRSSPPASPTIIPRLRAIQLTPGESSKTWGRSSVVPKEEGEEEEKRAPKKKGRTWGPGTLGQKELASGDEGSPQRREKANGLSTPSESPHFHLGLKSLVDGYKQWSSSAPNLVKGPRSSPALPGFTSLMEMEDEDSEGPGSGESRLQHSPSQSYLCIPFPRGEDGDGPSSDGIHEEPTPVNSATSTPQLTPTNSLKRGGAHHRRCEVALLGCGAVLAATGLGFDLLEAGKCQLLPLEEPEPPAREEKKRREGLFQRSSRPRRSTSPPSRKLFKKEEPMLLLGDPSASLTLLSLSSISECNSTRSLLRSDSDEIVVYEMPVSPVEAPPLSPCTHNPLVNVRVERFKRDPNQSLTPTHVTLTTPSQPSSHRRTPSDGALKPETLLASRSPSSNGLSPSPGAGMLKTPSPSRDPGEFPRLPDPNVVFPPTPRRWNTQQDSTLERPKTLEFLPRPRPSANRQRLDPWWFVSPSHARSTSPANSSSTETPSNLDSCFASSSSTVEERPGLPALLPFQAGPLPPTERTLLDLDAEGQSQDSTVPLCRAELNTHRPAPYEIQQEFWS
Sequence of Mast/stem cell growth factor receptor Kit (Homo sapiens), P10721 [V559D,T670I] (P10721 whole entry V559D/T670I): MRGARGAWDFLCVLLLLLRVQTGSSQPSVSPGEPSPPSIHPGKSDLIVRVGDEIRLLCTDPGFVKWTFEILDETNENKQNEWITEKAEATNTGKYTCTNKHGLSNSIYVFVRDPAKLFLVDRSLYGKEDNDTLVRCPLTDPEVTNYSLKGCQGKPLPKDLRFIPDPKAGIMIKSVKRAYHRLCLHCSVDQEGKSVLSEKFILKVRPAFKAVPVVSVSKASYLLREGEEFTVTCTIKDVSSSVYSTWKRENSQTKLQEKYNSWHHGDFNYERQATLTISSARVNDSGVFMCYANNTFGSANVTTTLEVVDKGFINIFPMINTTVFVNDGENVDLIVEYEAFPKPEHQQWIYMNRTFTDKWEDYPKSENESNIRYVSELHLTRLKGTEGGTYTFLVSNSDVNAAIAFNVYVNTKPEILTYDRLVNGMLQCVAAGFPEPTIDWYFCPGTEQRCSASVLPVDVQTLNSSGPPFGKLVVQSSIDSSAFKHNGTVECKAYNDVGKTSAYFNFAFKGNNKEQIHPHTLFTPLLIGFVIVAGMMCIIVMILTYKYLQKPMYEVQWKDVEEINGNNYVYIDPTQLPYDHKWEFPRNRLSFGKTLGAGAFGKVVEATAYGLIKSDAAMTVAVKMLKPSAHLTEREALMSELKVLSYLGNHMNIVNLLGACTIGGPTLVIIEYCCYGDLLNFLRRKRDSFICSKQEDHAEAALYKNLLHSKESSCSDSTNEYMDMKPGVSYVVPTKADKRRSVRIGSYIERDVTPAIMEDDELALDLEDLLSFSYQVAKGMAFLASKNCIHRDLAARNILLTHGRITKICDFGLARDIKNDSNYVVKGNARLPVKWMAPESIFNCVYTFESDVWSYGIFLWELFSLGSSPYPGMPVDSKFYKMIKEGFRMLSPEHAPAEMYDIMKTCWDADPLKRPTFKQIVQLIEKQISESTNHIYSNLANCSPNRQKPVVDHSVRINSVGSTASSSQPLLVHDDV
Sequence of Phosphorylase b kinase gamma catalytic chain, skeletal muscle/heart isoform (Homo sapiens) (Q16816 whole entry, looked up, canonical isoform): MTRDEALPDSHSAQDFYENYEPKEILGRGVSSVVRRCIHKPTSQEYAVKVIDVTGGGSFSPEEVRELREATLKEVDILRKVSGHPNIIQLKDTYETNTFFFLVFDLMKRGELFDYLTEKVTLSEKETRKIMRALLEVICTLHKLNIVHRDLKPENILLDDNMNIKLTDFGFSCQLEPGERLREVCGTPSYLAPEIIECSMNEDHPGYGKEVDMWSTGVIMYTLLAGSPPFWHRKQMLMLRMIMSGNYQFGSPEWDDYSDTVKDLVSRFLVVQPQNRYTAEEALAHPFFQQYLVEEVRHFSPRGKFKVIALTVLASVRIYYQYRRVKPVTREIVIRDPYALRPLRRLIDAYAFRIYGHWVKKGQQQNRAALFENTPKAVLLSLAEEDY

CN(C)C(=O)Cn1cc(-c2nc(C3(c4ccc(-c5cnc(N)nc5)cc4)CC3)no2)cn1 [BI 0153]
inactive: residual activity [1] 97% | residual activity [2] 99% | residual activity [3] 100% | inhibition [4] 22.8% | residual activity [5] 100% | residual activity [6] 99% | residual activity [7] 100% | residual activity [8] 99% | residual activity [9] 82% | residual activity [10] 91% | residual activity [11] 93% | residual activity [12] 79% | residual activity [13] 87% | residual activity [14] 57% | residual activity [15] 91% | residual activity [16] 100%

CN(C)C(=O)Cn1cc(-c2nc([C@@](C)(c3ccc(-c4cnc(N)nc4)cc3)C3CC3)no2)cn1 [BI 665915]
inactive: residual activity [1] 77% | residual activity [2] 75% | residual activity [3] 85% | inhibition [4] 9.24% | residual activity [5] 90% | residual activity [6] 97% | residual activity [7] 81% | residual activity [8] 100% | residual activity [9] 89% | residual activity [10] 93% | residual activity [11] 94% | residual activity [12] 75% | residual activity [13] 100% | residual activity [14] 86% | residual activity [15] 100% | residual activity [16] 96%
